The source made the active and inactive calls. The rule behind the calls is not given here. Where only a bound is given, the exact number is not on record here.

This test has as its system host cell cytotoxicity, % cell control, 2% serum. Kind of test: viability of cells used for CXCR4-tropic fusion test – fusion assay cells, 2% serum, TC50, cytotoxicity control for HIV-1 antiviral lead project, dose response (AID 504394).
As to `O=C(O)c1ccc(C[n+]2c(-c3ccc([N+](=O)[O-])cc3)csc2Nc2ccccc2)cc1`, the TC50 is > 100 µM (inactive).
In the case of `COc1ccc(Cn2c(O)cc3nn(-c4nc5ccccc5s4)c(=O)c-3c2C)cc1`, the TC50 is 61.8 µM.
Consider `O=C(O)c1ccc([C@@H]2Nc3ccc(S(=O)(=O)Nc4cccc5ccccc45)cc3[C@@H]3C=CC[C@@H]32)cc1`, for which the TC50 was > 100 µM (inactive).
Turning to `O=C(O)CCC(C(=O)O)N1C(=O)/C(=C\c2ccco2)SC1=S` (configuration not stated), the TC50 was > 100 µM (inactive).
Regarding `Cc1c2c(=O)n(-c3nc4ccccc4s3)nc-2cc(O)n1CCc1cccs1`, the TC50 is > 100 µM (inactive).
To `CS(=O)(=O)C1=NSC2=NC(=O)/C(=C\c3cccn3-c3ccc(Br)cc3)C(=N)N21` belongs 46.2 µM; to `Cc1c2c(=O)n(-c3nc4ccccc4s3)nc-2cc(O)n1Cc1cccnc1`, > 100 µM (inactive); to `CCOc1ccc(-n2cccc2/C=C2/C(=N)N3C(=NC2=O)SN=C3S(C)(=O)=O)cc1`, 84.7 µM.
To `CCOC(=O)C1=C(C)N=c2sc(=Cc3ccc(OCC(=O)O)cc3)c(=O)n2C1c1ccccc1` (configuration not stated) belongs > 100 µM (inactive).
To `O=C(O)CCCN1C(=O)/C(=C\c2ccc(-c3cccc(Cl)c3)o2)SC1=S` belongs > 100 µM (inactive); to `CS(=O)(=O)C1=NSC2=NC(=O)/C(=C\c3cccn3-c3cccc(F)c3)C(=N)N21`, > 100 µM (inactive); to `O=C(O)c1ccc(C[n+]2c(-c3ccccc3)csc2Nc2ccccc2)cc1`, > 100 µM (inactive).
`CCOC(=O)C1=C(C)N=c2sc(=Cc3ccc(OCC(=O)O)cc3)c(=O)n2C1c1ccc(OC)cc1OC` (configuration not stated): the TC50 is > 100 µM (inactive).
To `Cc1c2c(=O)n(-c3nc4ccccc4s3)nc-2cc(O)n1CCc1ccc(O)cc1` belongs 30 µM; to `CCOC(=O)C1=C(C)N=c2sc(=Cc3ccc(OCC(=O)O)cc3)c(=O)n2C1c1ccc(F)cc1` (configuration not stated), > 100 µM (inactive).
On to `COc1ccc(CCn2c(O)cc3nn(-c4nc5ccccc5s4)c(=O)c-3c2C)cc1`, for which the TC50 was 63.2 µM.
On to `CS(=O)(=O)C1=NSC2=NC(=O)/C(=C\c3cccn3-c3ccc(F)cc3)C(=N)N21`, for which the TC50 was > 100 µM (inactive).
To `CC1=C(C(=O)OC(C)C)C(c2ccc(Cl)cc2)n2c(s/c(=C\c3ccc(OCC(=O)O)cc3)c2=O)=N1` (configuration not stated) belongs > 100 µM (inactive).
For `CCOC(=O)C1=C(C)N=c2s/c(=C\c3ccc(OCC(=O)O)cc3)c(=O)n2C1c1ccc(OC)c(OCC)c1` (configuration not stated) the value was 78.4 µM.
To `Cc1c2c(=O)n(-c3nc4ccccc4s3)nc-2cc(O)n1Cc1ccncc1` belongs > 100 µM (inactive).
With `CS(=O)(=O)C1=NSC2=NC(=O)/C(=C\c3cccn3-c3cccc(C(F)(F)F)c3)C(=N)N21`, the TC50 is > 100 µM (inactive).
In the case of `COc1cccc(-n2cccc2/C=C2/C(=N)N3C(=NC2=O)SN=C3S(C)(=O)=O)c1`, the TC50 is > 100 µM (inactive).
`O=C(O)CCCN1C(=O)/C(=C/c2ccc(-c3cccc(C(F)(F)F)c3)o2)SC1=S`: the TC50 was > 100 µM (inactive).
To `O=C(O)CCCN1C(=O)/C(=C/c2ccc(-c3ccc(Cl)c(Cl)c3)o2)SC1=S` belongs 12.4 µM; to `Cc1c2c(=O)n(-c3nc4ccccc4s3)nc-2cc(O)n1Cc1ccccc1Cl`, 38.1 µM.
To `Cc1c2c(=O)n(-c3nc4ccccc4s3)nc-2cc(O)n1CCC(C)C` belongs 68.5 µM; to `COc1ccc(-c2ccc(/C=C3\SC(=S)N(CCCC(=O)O)C3=O)o2)cc1`, 68.3 µM.
On to `COc1cccc(C2C(C(=O)Nc3ccccc3)=C(C)N=c3sc(=Cc4ccc(OCC(=O)O)cc4)c(=O)n32)c1` (configuration not stated), for which the TC50 is > 100 µM (inactive).
`Cc1c2c(=O)n(-c3nc4ccccc4s3)nc-2cc(O)n1Cc1ccc(F)cc1`: the TC50 was 59.9 µM.
For `Cc1ccc(-n2cccc2/C=C2/C(=N)N3C(=NC2=O)SN=C3S(C)(=O)=O)cc1` the value was 66.5 µM; for `Nc1sc2ccccc2[n+]1Cc1ccc(C(=O)O)cc1`, > 100 µM (inactive); for `CCOC(=O)C1=C(C)N=c2sc(=Cc3ccc(OCC(=O)O)cc3)c(=O)n2C1c1cc(OC)c(OC)c(OC)c1` (configuration not stated), > 100 µM (inactive).
With `Cc1ccc(-c2ccc(/C=C3\SC(=S)N(CCCC(=O)O)C3=O)o2)cc1`, the TC50 was > 100 µM (inactive).
To `CCOC(=O)C1=C(C)N=c2sc(=Cc3ccc(OCC(=O)O)cc3)c(=O)n2C1c1ccccc1OC` (configuration not stated) belongs > 100 µM (inactive).
For `O=C(O)CCCN1C(=O)/C(=C\c2ccc(-c3ccc(F)cc3)o2)SC1=S` the value was 38.1 µM; for `CCOC(=O)C1=C(c2ccccc2)N=c2s/c(=C\c3ccc(OCC(=O)O)cc3)c(=O)n2C1c1cccc(OC)c1` (configuration not stated), 80.4 µM.
For the molecule `Cc1c2c(=O)n(-c3nc4ccccc4s3)nc-2cc(O)n1C1CC1`, the TC50 was 83.9 µM.
